Source: ChEMBL document CHEMBL1201862, “PubChem BioAssay data set” (2004)
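These data come from cells grown in 96-well plates and exposed to compound for 48 hours at five concentrations. At the GI50, growth is halved.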 The source made the active and inactive calls. Rule as the data show it: active = GI50 up to about 1.1 µM and inactive = higher.

What was measured:
Assay in all cases: inhibition of tumour cell growth, NCI panel, 48 h
786-0 = test system: 786-0
A498 = test system: A498
A549 = test system: A549
ACHN = test system: ACHN
CAKI-1 = test system: CAKI-1
CCRF-CEM = test system: CCRF-CEM
COLO 205 = test system: COLO 205
DU-145 = test system: DU-145
EKVX = test system: EKVX
HCC 2998 = test system: HCC 2998
HCT-116 = test system: HCT-116
HCT-15 = test system: HCT-15
HL-60 = test system: HL-60
HOP-62 = test system: HOP-62
HOP-92 = test system: HOP-92
HT-29 = test system: HT-29
IGROV-1 = test system: IGROV-1
K562 = test system: K562
KM12 = test system: KM12
LOX IMVI = test system: LOX IMVI
M14 = test system: M14
MCF7 = test system: MCF7
MDA-MB-231 = test system: MDA-MB-231
MDA-MB-435 = test system: MDA-MB-435
MDA-N = test system: MDA-N
MOLT-4 = test system: MOLT-4
Malme-3M = test system: Malme-3M
NCI-H226 = test system: NCI-H226
NCI-H23 = test system: NCI-H23
NCI-H522 = test system: NCI-H522
NCI/ADR-RES = test system: NCI/ADR-RES
OVCAR-3 = test system: OVCAR-3
OVCAR-4 = test system: OVCAR-4
OVCAR-5 = test system: OVCAR-5
OVCAR-8 = test system: OVCAR-8
PC-3 = test system: PC-3
RXF 393 = test system: RXF 393
SF-295 = test system: SF-295
SF-539 = test system: SF-539
SK-MEL-28 = test system: SK-MEL-28
SK-MEL-2 = test system: SK-MEL-2
SK-MEL-5 = test system: SK-MEL-5
SK-OV-3 = test system: SK-OV-3
SN12C = test system: SN12C
SNB-19 = test system: SNB-19
SNB-75 = test system: SNB-75
SW-620 = test system: SW-620
T47D = test system: T47D
TK-10 = test system: TK-10
U-251 = test system: U-251
UACC-257 = test system: UACC-257
UACC-62 = test system: UACC-62
UO-31 = test system: UO-31
Hs-578T = test system: Hs-578T
RPMI-8226 = test system: RPMI-8226
SF-268 = test system: SF-268
SR = test system: SR

With `C=CCn1c2ccccc2[n+]2cc([N+](=O)[O-])ccc12` the GI50 (786-0) was 46.2 µM (inactive), the GI50 (A498) was 19.5 µM (inactive) and the GI50 (A549) was > 100 µM (inactive). For the same molecule, the GI50 (ACHN) was 33.1 µM (inactive), the GI50 (CAKI-1) was 32.1 µM (inactive) and the GI50 (CCRF-CEM) was 20.9 µM (inactive). For the same molecule, the GI50 (COLO 205) was 12.3 µM (inactive), the GI50 (DU-145) was 50.9 µM (inactive) and the GI50 (EKVX) was 37 µM (inactive). For the same molecule, the GI50 (HCC 2998) was 54.8 µM (inactive), the GI50 (HCT-116) was 27.2 µM (inactive) and the GI50 (HCT-15) was 34.5 µM. The GI50 (HL-60) was 17.3 µM (inactive), the GI50 (HOP-62) was 54.3 µM (inactive) and the GI50 (HOP-92) was 18.9 µM (inactive). The GI50 (HT-29) was 18.3 µM (inactive), the GI50 (IGROV-1) was 21.3 µM (inactive) and the GI50 (K562) was 13 µM (inactive). For the same molecule, the GI50 (KM12) was 40.1 µM (inactive), the GI50 (LOX IMVI) was 30.5 µM (inactive) and the GI50 (M14) was 36.3 µM (inactive). For the same molecule, the GI50 (MCF7) was 26.3 µM (inactive), the GI50 (MDA-MB-231) was 34.7 µM (inactive) and the GI50 (MDA-MB-435) was 26.4 µM (inactive). For the same molecule, the GI50 (MDA-N) was 23.9 µM (inactive), the GI50 (MOLT-4) was 28.2 µM (inactive) and the GI50 (Malme-3M) was 15.8 µM (inactive). The GI50 (NCI-H226) was 25.9 µM (inactive), the GI50 (NCI-H23) was 20 µM (inactive) and the GI50 (NCI-H522) was 16 µM (inactive). The GI50 (NCI/ADR-RES) was 57 µM (inactive), the GI50 (OVCAR-3) was 24.5 µM (inactive) and the GI50 (OVCAR-4) was 77.4 µM (inactive). For the same molecule, the GI50 (OVCAR-5) was 74 µM (inactive), the GI50 (OVCAR-8) was 27 µM (inactive) and the GI50 (PC-3) was 48.8 µM (inactive). The GI50 (RXF 393) was 67.3 µM (inactive), the GI50 (SF-295) was > 100 µM (inactive) and the GI50 (SF-539) was 32.7 µM (inactive). The GI50 (SK-MEL-28) was 34.2 µM (inactive), the GI50 (SK-MEL-2) was 27.2 µM (inactive) and the GI50 (SK-MEL-5) was 22 µM (inactive). The GI50 (SK-OV-3) was 47.2 µM (inactive), the GI50 (SN12C) was 27.3 µM (inactive) and the GI50 (SNB-19) was 66.2 µM (inactive). The GI50 (SNB-75) was 33.1 µM (inactive), the GI50 (SW-620) was 30.8 µM (inactive) and the GI50 (T47D) was 32.3 µM (inactive). For the same molecule, the GI50 (TK-10) was 61.7 µM (inactive), the GI50 (U-251) was 31.9 µM (inactive) and the GI50 (UACC-257) was 21.3 µM (inactive). The GI50 (UACC-62) was 28.6 µM (inactive) and the GI50 (UO-31) was 48.4 µM (inactive).

In the case of `CCOC(=O)C(Cl)(NC(=O)NC(Cl)(C(=O)OCC)C(F)(F)F)C(F)(F)F` (stereo unspecified), the GI50 (786-0) is reported as > 100 µM (inactive), the GI50 (A498) is reported as > 100 µM (inactive) and the GI50 (ACHN) is reported as > 100 µM (inactive). The GI50 (CCRF-CEM) was > 100 µM (inactive), the GI50 (COLO 205) was > 100 µM (inactive) and the GI50 (HCC 2998) was > 100 µM (inactive). The GI50 (HCT-116) was > 100 µM (inactive), the GI50 (HCT-15) was over 100 µM and the GI50 (HL-60) was > 100 µM (inactive). For the same molecule, the GI50 (HT-29) was > 100 µM (inactive), the GI50 (Hs-578T) was > 100 µM (inactive) and the GI50 (K562) was > 100 µM (inactive). For the same molecule, the GI50 (LOX IMVI) was > 100 µM (inactive), the GI50 (MDA-N) was > 100 µM (inactive) and the GI50 (MOLT-4) was > 100 µM (inactive). The GI50 (NCI-H23) was > 100 µM (inactive), the GI50 (NCI/ADR-RES) was > 100 µM (inactive) and the GI50 (OVCAR-5) was > 100 µM (inactive). For the same molecule, the GI50 (PC-3) was > 100 µM (inactive), the GI50 (RPMI-8226) was > 100 µM (inactive) and the GI50 (RXF 393) was > 100 µM (inactive). The GI50 (SF-268) was > 100 µM (inactive), the GI50 (SF-539) was > 100 µM (inactive) and the GI50 (SK-MEL-28) was > 100 µM (inactive). For the same molecule, the GI50 (SK-MEL-2) was > 100 µM (inactive), the GI50 (SK-OV-3) was > 100 µM (inactive) and the GI50 (SN12C) was > 100 µM (inactive). The GI50 (SNB-19) was > 100 µM (inactive), the GI50 (SNB-75) was > 100 µM (inactive) and the GI50 (SR) was > 100 µM (inactive). For the same molecule, the GI50 (U-251) was > 100 µM (inactive), the GI50 (UACC-257) was > 100 µM (inactive) and the GI50 (UO-31) was > 100 µM (inactive).
